We go through one molecule from paper PMC11476017, “A Lincomycin-Specific Antibody Was Developed Using Hapten Prediction, and an Immunoassay Was Established to Detect Lincomycin in Pork and Milk” (Foods, 2024).

The experiment deals with T1, monoclonal antibody 1B11 (LIN/1B11).
T1 construct: whole monoclonal antibody, IgG1
Briefly: indirect competitive ELISA with LIN-NaIO4-OVA coating antigen. The experiment is classed as binding.

SMILES strings stand for the structures.

For the molecule `CCC[C@@H]1C[C@@H](C(=O)N[C@@H]([C@H]2O[C@H](SC)[C@H](O)[C@@H](O)[C@H]2O)[C@@H](C)O)N(C)C1` [LIN, lincomycin], the IC50 is listed as 0.57 ± 0.03 µg/kg.
